Columns and labels:
Oxoeicosanoid receptor 1 [1] = target: T1, Oxoeicosanoid receptor 1 (Homo sapiens, UniProt Q8TDS5); experiment: Agonist activity at human PK-tagged OXER1 expressed in CHOK1 cells assessed as EA-tagged beta-arrestin recruitment by beta-galactosidase enzyme fragment complementation assay; assay type: functional, cell-based
Oxoeicosanoid receptor 1 [2] = target: T1, Oxoeicosanoid receptor 1; experiment: Agonist activity at human PK-tagged OXER1 expressed in CHOK1 cells assessed as EA-tagged beta-arrestin recruitment by beta-galactosidase enzyme fragment complementation assay relative to control; assay type: functional, cell-based

T1 sequence (Q8TDS5 whole entry, the tested form may be a part): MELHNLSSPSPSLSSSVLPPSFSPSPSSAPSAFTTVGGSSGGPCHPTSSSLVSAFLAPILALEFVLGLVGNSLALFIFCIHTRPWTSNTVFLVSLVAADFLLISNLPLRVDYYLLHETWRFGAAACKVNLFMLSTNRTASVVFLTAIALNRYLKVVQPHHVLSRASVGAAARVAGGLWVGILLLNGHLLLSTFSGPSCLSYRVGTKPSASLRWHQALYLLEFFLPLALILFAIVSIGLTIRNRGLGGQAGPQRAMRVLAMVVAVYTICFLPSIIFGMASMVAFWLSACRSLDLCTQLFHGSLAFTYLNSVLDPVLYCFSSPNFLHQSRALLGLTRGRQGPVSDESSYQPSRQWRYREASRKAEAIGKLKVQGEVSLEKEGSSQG

Compound `CC/C=C\C/C=C\C/C=C\C/C=C\C=C\C(=O)CCCC(=O)OC` has an EC50 (Oxoeicosanoid receptor 1 [1]) of 2080 nM and an Emax (Oxoeicosanoid receptor 1 [2]) of 119%.

`CCCCC/C=C\C/C=C\C/C=C\C=C\C(=O)CCCC(=O)O` [5-OXO-ETE] was tested, and the EC50 (Oxoeicosanoid receptor 1 [1]) was 220 nM and the Emax (Oxoeicosanoid receptor 1 [2]) was 100%.

With `CC/C=C\C/C=C\C/C=C\C/C=C\C=C\C(=O)CCCC(=O)O` the EC50 (Oxoeicosanoid receptor 1 [1]) was 380 nM and the Emax (Oxoeicosanoid receptor 1 [2]) was 80%.

`CC/C=C\C/C=C\C/C=C\C/C=C\C/C=C\C=C\C(=O)CCC(=O)OC` was tested, and the EC50 (Oxoeicosanoid receptor 1 [1]) was > 100000 nM and the Emax (Oxoeicosanoid receptor 1 [2]) was 64%.

Compound `CCCCC/C=C\C/C=C\C/C=C\C=C\C(=O)CCCC(=O)OC` has an EC50 (Oxoeicosanoid receptor 1 [1]) of 1540 nM and an Emax (Oxoeicosanoid receptor 1 [2]) of 133%.

For `CC/C=C\C/C=C\C/C=C\C/C=C\C/C=C\C=C\C(=O)CCC(=O)O`, the EC50 (Oxoeicosanoid receptor 1 [1]) was > 100000 nM and the Emax (Oxoeicosanoid receptor 1 [2]) was 23%.

Source: ChEMBL document CHEMBL4118243, “Synthesis, molecular modelling studies and biological evaluation of new oxoeicosanoid receptor 1 agonists” (Bioorg Med Chem, 2018)
